Test results reported in PubChem BioAssay (NCI).
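Cultured in 96-well plates, cells were exposed to test compound for 48 hours across five concentrations. At the TGI there is no net growth.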 Where a SMILES comes first, the peptide text is derived from it. The star is where a group is joined. Boc = CC(C)(C)OC(=O)*

Assays:
Experiment in all cases: NCI anticancer screen, dose series, 48 h
CAKI-1 renal = tested on: CAKI-1 renal
OVCAR-5 ovarian = tested on: OVCAR-5 ovarian
786-0 renal = tested on: 786-0 renal
UACC-257 melanoma = tested on: UACC-257 melanoma
MDA-MB-435 = tested on: MDA-MB-435
MOLT-4 leukemia = tested on: MOLT-4 leukemia
UACC-62 melanoma = tested on: UACC-62 melanoma
T-47D breast = tested on: T-47D breast
A549 NSCLC = tested on: A549 NSCLC
HOP-62 NSCLC = tested on: HOP-62 NSCLC
CCRF-CEM leukemia = tested on: CCRF-CEM leukemia
SK-MEL-28 melanoma = tested on: SK-MEL-28 melanoma
OVCAR-8 ovarian = tested on: OVCAR-8 ovarian
IGROV1 ovarian = tested on: IGROV1 ovarian

Structure (SMILES) | TGI (CAKI-1 renal) [µM] | TGI (OVCAR-5 ovarian) [µM] | TGI (786-0 renal) [µM] | TGI (UACC-257 melanoma) [µM] | TGI (MDA-MB-435) [µM] | TGI (MOLT-4 leukemia) [µM] | TGI (UACC-62 melanoma) [µM] | TGI (T-47D breast) [µM] | TGI (A549 NSCLC) [µM] | TGI (HOP-62 NSCLC) [µM] | TGI (CCRF-CEM leukemia) [µM] | TGI (SK-MEL-28 melanoma) [µM] | TGI (OVCAR-8 ovarian) [µM] | TGI (IGROV1 ovarian) [µM]
COc1ccccc1-c1n[nH]c(-c2ccccc2O)n1 | > 100 | > 100 | > 100 | > 100 | > 100 | > 100 | > 100 | > 100 | > 100 | > 100 | > 100 | > 100 | > 100 | –
CCOC(=O)NC(Nc1cccc(F)c1)(C(F)(F)F)C(F)(F)F | > 100 | > 100 | > 100 | > 100 | > 100 | > 100 | > 100 | > 100 | > 100 | > 100 | > 100 | > 100 | > 100 | > 100
O=c1[nH]nc(Cc2ccccc2)n1N=C1CCCCC1 | > 100 | > 100 | > 100 | > 100 | > 100 | > 100 | > 100 | > 100 | > 100 | > 100 | > 100 | > 100 | > 100 | > 100
CCOC(=O)NC(OCCN(C)C)(C(F)(F)F)C(F)(F)F | > 100 | > 100 | > 100 | > 100 | > 100 | > 100 | > 100 | > 100 | > 100 | > 100 | > 100 | > 100 | > 100 | > 100
CCOC(=O)c1nc2cc(F)c(F)cc2nc1NCc1cc(OC)c(OC)c(OC)c1 | > 100 | > 100 | > 100 | > 100 | > 100 | > 100 | > 100 | > 100 | > 100 | > 100 | > 100 | > 100 | > 100 | > 100
CSC1=C(C)S/C(=C\c2ccc(/C=C3\SC(C)=C(SC)S3)cc2)S1 | > 100 | > 100 | > 100 | > 100 | > 100 | > 100 | > 100 | > 100 | > 100 | > 100 | > 100 | > 100 | > 100 | > 100
CN(O)C(=O)c1ccc(OCc2cccc(Cl)c2)cc1 | > 92.6 | > 100 | 53.1 | > 100 | > 100 | > 100 | > 79.4 | 98.6 | > 100 | > 100 | > 100 | > 100 | > 95.9 | > 100
CC1=NN(c2cccc(Cl)c2)C(=N/c2nc3ccccc3s2)/C1=C\c1ccccc1O | > 100 | > 100 | > 100 | 62.2 | > 100 | 87.4 | – | > 100 | – | > 100 | > 100 | 76.3 | > 100 | > 100
Clc1ccccc1-c1nn2c(CCCCCCCCc3nnc4sc(-c5ccccc5Cl)nn34)nnc2s1 | > 100 | > 100 | > 100 | > 100 | > 100 | > 100 | > 100 | > 100 | > 100 | > 100 | > 100 | > 100 | > 100 | –
CC(=O)O[C@H]1CC[C@@]2(C)C(=CC[C@H]3[C@@H]4C[C@H](N5CCN(C)CC5)[C@H](OC(C)=O)[C@@]4(C)CC[C@@H]32)C1 | > 66.5 | 76.9 | 35.3 | 17.3 | 19.2 | 16.8 | 26.4 | 41.2 | 36 | 52.6 | 16 | 26.1 | 30.5 | 37.9
COc1ccc(/C=C/C(=N/NC(=O)N/N=C(/C=C/c2ccc(OC)cc2)C(C)C)C(C)C)cc1 | > 100 | > 100 | > 100 | > 100 | > 100 | > 100 | > 100 | > 100 | > 100 | > 100 | > 100 | > 100 | > 100 | > 100
CCOc1cc(NC(C)=O)ccc1C(=O)NN1C(=O)C(Cl)C1c1ccc(O)c(OC)c1 (stereo not drawn) | 31.4 | 33.9 | 26 | 27 | 29.8 | 19 | 25.5 | 30.8 | 32.5 | 35.8 | 25.8 | 38.2 | 82.3 | 28.2
COc1nc(N)nc2c1n(C)c[n+]2C | > 100 | > 100 | > 100 | > 100 | > 100 | > 100 | > 100 | > 100 | > 100 | > 100 | > 100 | > 100 | > 100 | > 100
O=C(c1c(F)c(F)c(F)c(F)c1F)n1c(=O)[nH]c2ccccc21 | 11.3 | 29.7 | 47.4 | 19.7 | 21.9 | 18.7 | 25.5 | 17.6 | 32.5 | 31.6 | 18.8 | 28.3 | 27 | 24.2
COc1ccc2c(c1)nc1n2C(c2c(F)cccc2F)SC1 (stereo not drawn) | > 100 | > 100 | > 100 | > 100 | > 100 | > 100 | > 100 | > 100 | > 100 | > 100 | > 100 | > 100 | > 100 | > 100
Nc1c(O)c2c(c(O)c1Cl)C(=O)C=CC2=O | 32.2 | 11.4 | 25.5 | 3.3 | 3.16 | > 87.6 | 3.05 | 21.5 | 5.68 | 15.9 | > 100 | 8.68 | 14 | 14

Structure (SMILES) | TGI (CAKI-1 renal) [µM] | TGI (OVCAR-5 ovarian) [µM] | TGI (786-0 renal) [µM] | TGI (UACC-257 melanoma) [µM] | TGI (MDA-MB-435) [µM] | TGI (MOLT-4 leukemia) [µM] | TGI (UACC-62 melanoma) [µM] | TGI (T-47D breast) [µM] | TGI (A549 NSCLC) [µM] | TGI (HOP-62 NSCLC) [µM] | TGI (CCRF-CEM leukemia) [µM] | TGI (SK-MEL-28 melanoma) [µM] | TGI (OVCAR-8 ovarian) [µM] | TGI (IGROV1 ovarian) [µM]
COc1ccc(-c2c(C#N)c(N)n(C3OCC(O)C(O)C3O)c(=S)c2C#N)cc1 (stereo not drawn) | > 100 | > 100 | > 100 | – | > 100 | > 100 | > 100 | > 100 | > 100 | > 100 | > 100 | > 100 | > 100 | > 100
O=c1oc2ccccc2cc1-c1nc2ccccc2c(=O)[nH]1 | > 100 | > 100 | > 100 | > 100 | > 100 | > 100 | > 100 | > 100 | > 100 | > 100 | > 100 | > 100 | > 100 | > 100
CN(C(=O)C12C3C4C1C1C2C3C41C(=O)O)C(C)(C)C (stereo not drawn) | > 100 | > 100 | > 100 | > 100 | > 100 | > 100 | > 100 | > 100 | > 100 | > 100 | > 100 | > 100 | > 100 | > 100
CCCCCCCCCCCCOCCCCCCCCC/C=C/c1ccc2c(c1)OCCOCCOCCOCCO2 | 33.5 | > 100 | 26.6 | 73.2 | 33.8 | > 100 | 30.3 | 48.2 | 36.6 | 51.4 | > 100 | > 100 | 25.5 | 50.6
COC(=O)C(Cc1c[nH]c2ccccc12)NC(=O)C(Cc1c[nH]c2ccccc12)NC(=O)C(Cc1c[nH]c2ccccc12)NC(=O)C(Cc1c[nH]c2ccccc12)NC(=O)C(Cc1c[nH]c2ccccc12)NC(=O)OC(C)(C)C (stereo not drawn) (Boc-WWWWW-OMe; configuration not given here) | > 100 | > 100 | > 100 | > 100 | > 100 | > 100 | > 100 | > 100 | > 100 | > 100 | > 100 | > 100 | > 100 | > 100
CC(C)(C)c1cc(C(C)(C)C)c(P=C(Cl)Cl)c(C(C)(C)C)c1 (stereo not drawn) | > 100 | > 100 | > 100 | > 100 | > 100 | > 100 | > 100 | > 100 | > 100 | > 100 | > 100 | > 100 | > 100 | > 100
Cc1cccc(/C=N/NC(=S)NC2CCCCC2)n1 | > 100 | > 100 | 98.3 | > 84.5 | > 100 | 13.9 | 59.2 | > 86.3 | > 88.9 | > 90.9 | > 21.5 | > 100 | > 69 | > 100
CC(C)C(=O)CC(Sc1ccc(N)cc1)c1ccccc1 (stereo not drawn) | > 100 | > 100 | > 100 | > 100 | 39.8 | > 100 | 72.1 | 71.6 | > 100 | 83.9 | 70.7 | > 100 | 96.9 | > 100
COc1ccc(C[C@H]2NC[C@H](OC(C)=O)[C@H]2OC(C)=O)cc1 | 0.544 | 0.679 | 1.05 | 2.98 | 1.23 | 1.98 | 4.23 | 0.7 | 1.08 | 2.75 | 1.18 | 0.562 | 2 | 0.674
O=C1c2scc(-c3ccc(F)cc3)c2-n2cccc21 | > 100 | > 100 | 68.6 | > 100 | 31.4 | > 100 | > 100 | > 100 | > 100 | 64.4 | > 100 | > 100 | > 100 | > 100
O=[N+]([O-])/C(C(Cl)=C(Cl)Cl)=C(\Nc1cccc2cccnc12)Sc1ccccc1 | 46.7 | > 100 | 49.7 | 55.7 | 42.7 | 37.4 | 88.4 | 38.4 | > 100 | 80.7 | > 100 | 36 | – | –
C[C@@H]1C(=O)O[C@@H]2C[C@@]1(C)[C@@H]1C(=O)C3(O)OC14C2(C)OC(=O)[C@@]4(O)CCC1C3C(O)C=C2CC=CC(=O)[C@@]21C (stereo partly drawn) | > 100 | 67.9 | > 100 | > 100 | 79.4 | 57.1 | > 100 | > 100 | > 100 | > 100 | 40.7 | 54.4 | > 100 | > 100
CNc1nc2c(C)ccc3nc(N(C)C)nc-3c2n1C | > 10 | > 10 | > 10 | > 10 | > 10 | > 10 | – | > 10 | > 10 | > 10 | > 10 | > 10 | > 10 | > 10
NS(=O)(=O)c1ccc(NC(=S)/N=C/c2c(O)c3ccccc3[nH]c2=O)cc1 | > 100 | > 100 | > 100 | > 100 | > 100 | > 100 | > 100 | > 100 | > 100 | > 100 | > 100 | > 100 | > 100 | > 100
CN(C)Cc1cc(N=Nc2c(Cl)cccc2Cl)ccc1O | > 100 | – | > 100 | > 100 | > 100 | > 100 | > 100 | > 100 | > 100 | > 100 | > 100 | > 100 | > 100 | > 100
Cc1nc2ccc(S(=O)(=O)Nc3ccccn3)cc2c(=O)n1NS(=O)(=O)c1ccccn1 | > 100 | > 100 | > 100 | > 100 | > 100 | > 100 | > 100 | > 100 | – | > 100 | > 100 | > 100 | > 100 | > 100
